Laboratory results as given in patent publication US9243036B2, “Anti-microbial activity of synthetic peptides” (THE UNITED STATES OF AMERICA, as represented by the …, priority 2012, dated 2016).
“Also recorded” adds a separate entry of the source. Residues, ends and D or L forms follow the SMILES beside them.

What was measured:
S. aureus [1] = assay: Anti-bacterial activity in spiked platelets; type: cell-based; conditions: even at high concentrations
Procedure: (§1) The anti-bacterial activity of the peptide in the presence of homologous plasma and platelets were assessed. Platelet Concentrates (PCs) in bags were obtained and stored at room temperature as described earlier (Mohan, K. V. et al., (2010) Transfusion 50, 166-173). Plasma was isolated from the PC bag by collecting 25 ml of PCs and subjecting the sample to a low speed centrifugation step to separate PLT-rich plasma from plasma. For assays log phase cultures of bacteria grown in Luria-Bertani (LB) broth were centrifuged at 3000×g and suspended in 1×PBS pH7.4. Bacterial titers were estimated by measuring the optical density (OD) and microscopy. Approximately 10^5 CFU/ml of each bacterial strain was spiked into 0.1 ml of plasma or platelets and incubated with peptide at concentrations ranging from 50 to 0 μg/ml. Incubation was carried out at room temperature for 2 h on a shaker. At the end of 2-h exposure period, a fixed volume of the suspension was plated on NA plates, and incubating at 37° C. for 18 to 24 h. Bactericidal activity was measured by log-reduction by viable bacteria.

K pneumoniae [2] = assay: Anti-bacterial activity in spiked platelets; type: cell-based; conditions: 2 h
Procedure: as §1

B. cereus [3] = assay: Anti-bacterial activity in spiked platelets; type: cell-based; conditions: even at high concentrations
Procedure: as §1

P. aeruginosa [4] = assay: Anti-bacterial activity in spiked platelets; type: cell-based; conditions: EC5 25 and 12.5 μg/ml; 2 h
Procedure: as §1

S. epidermidis [5] = assay: Anti-bacterial activity in spiked platelets; type: cell-based; conditions: even at high concentrations
Procedure: as §1

E. coli [6] = assay: Anti-bacterial activity in spiked platelets; type: cell-based; conditions: 2 h
Procedure: as §1

[7] = tested on: chicken red blood cells (ch-RBCs); type: cell-based
Procedure: The ability of EC5 to induce hemolysis of chicken red blood cells (ch-RBCs) was assessed as previously described (Pathak, S. and Chauhan, V. S. (2011) Antimicrob. Agents Chemother. 55, 2178-2188). Red blood cells were harvested and washed with phosphate-buffered saline (PBS). 1% (vol/vol) suspension was made with PBS. 100 μl and 50 μl of this RBC suspension were transferred to 96-well microtiter plates. Two-fold serial dilutions of the peptide samples were prepared and added to the RBCs. The reaction mixture was incubated at 37° C. for 24 h in microtiter plates. Results were visually determined.
The hemolytic activity of EC5 against chRBCs was determined as a measure of peptide toxicity toward higher eukaryotic cells (Yount, N. Y., et al., (2011) PLoS. One. 6, e26727; Tachi, T., et al., Biochemistry 41, 10723-10731). MHC is the maximal peptide concentration that produces no hemolysis after 24 h of incubation at 37° C.

E. coli [8] = assay: Qdot-based fluorometry binding assay; conditions: EC5 50 μg/ml; p<0.0001
Procedure: (§2) The assay was carried out as described earlier (21,24). Bacterial cell suspensions at a concentration of 10^3 CFU were incubated with EC5 (50 μg/ml) in an eppendorf tube at room temperature for 60 min. Following three washes with 1×PBS pH 7.4 the pellet was resuspended in […] of 1:10,000 dilution of streptavidin-conjugated Q dots (QD 605) solution (Invitrogen, Gaithersburg, Md.). The fluorometric counts were measured using SYNERGY 4™ BioTek micro plate reader (BioTek Instruments, Winooski, Vt.).
(§3) Binding of the peptide to the bacteria was detected using Qdot-nanocrystal cores conjugated to streptavidin. Analysis of the bacterial suspension binding to the peptide was performed in a micro-well plate using a fluorescence plate reader (SYNERGY 4™, Biotek, USA). Excitation was set to a spectral range of 360-485 nm and emission was at 605 nm. […] The analysis also confirmed that EC5 binds to P. aeruginosa cells.

P. aeruginosa cells = assay: Qdot-based fluorometry binding assay; conditions: EC5 50 μg/ml
Procedure: as §2, §3

S. aureus [9] = assay: Anti-bacterial activity in spiked plasma; type: cell-based; conditions: even at 50 μg/ml
Procedure: as §1

K pneumoniae [10] = assay: Anti-bacterial activity in spiked plasma; type: cell-based; conditions: 2 h
Procedure: as §1

B. cereus [11] = assay: Anti-bacterial activity in spiked plasma; type: cell-based; conditions: even at 50 μg/ml
Procedure: as §1

P. aeruginosa [12] = assay: Anti-bacterial activity in spiked plasma; type: cell-based; conditions: 2 h
Procedure: as §1

S. epidermidis [13] = assay: Anti-bacterial activity in spiked plasma; type: cell-based; conditions: even at 50 μg/ml
Procedure: as §1

E. coli [14] = assay: Anti-bacterial activity in spiked plasma; type: cell-based; conditions: 2 h
Procedure: as §1

P. aeruginosa [15] = assay: Time-kill kinetics; type: cell-based; conditions: P. aeruginosa ATCC 12121; 27853
Procedure: (§4) In vitro anti-bacterial activity of EC5. The test microorganisms mentioned earlier in the experimental procedures were used to evaluate the bactericidal activity of EC5 peptide. The minimum inhibitory concentrations (MICs) of the peptide were determined by standard dilution assay as recommended by Clinical and Laboratory Standard Institutes (CLSI) guidelines (Azad, M. A., et al., (2011) Antimicrob. Agents Chemother. 55, 2137-2145). Bacteria were grown to mid-logarithmic phase in cation-supplemented Mueller-Hinton broth (MHB) (Becton Dickinson, Sparks, Md.) on an orbital shaker (37° C.) and diluted to a 0.5 McFarland standard to a final volume of 1 ml. Decreasing concentrations of the peptide were incubated with the microorganisms. Results were recorded by visual inspection after 24 h of incubation at 37° C. Assay was repeated three separate times to ensure reproducibility. […] EC5 concentrations 0x, 0.5x, 1x, and 2×MIC were incubated with logarithmic phase of bacteria of approximately 10^5 CFU/ml in an orbital shaker for 48 h at 37° C. Samples were drawn and plated on NA plates. Polymyxin B was used as a positive control and peptide with no anti-bacterial activity from our previous studies was used as a negative control.

E. coli [16] = assay: Time-kill kinetics; type: cell-based
Procedure: as §4

SMILES: CC[C@H](C)[C@H](NC(=O)[C@H](CCCCN)NC(=O)[C@H](CCCNC(=N)N)NC(=O)[C@H](Cc1ccccc1)NC(=O)[C@H](CC(C)C)NC(=O)[C@H](CC(C)C)NC(=O)[C@@H](N)CCCNC(=N)N)C(=O)N[C@@H](CCCNC(=N)N)C(=O)N[C@@H](CCCNC(=N)N)C(=O)N[C@@H](CC(C)C)C(=O)N[C@@H](CCCCN)C(=O)N[C@@H](CCCNC(=N)N)C(=O)O [EC5, RLLFRKIRRLKR] (H-RLLFRKIRRLKR-OH; N-terminus and C-terminus assumed)
- reduction of S. aureus in platelets (S. aureus [1]): No significant reduction
- reduction of K pneumoniae in platelets (K pneumoniae [2]; EC5 12.5 μg/ml): 1 log10CFU/m
- reduction of K pneumoniae in platelets (K pneumoniae [2]; EC5 25 μg/ml): 1.5 log10CFU/m
- reduction of K pneumoniae in platelets (K pneumoniae [2]; EC5 50 μg/ml): 2.5 log10CFU/m
- reduction of B. cereus in platelets (B. cereus [3]): No significant reduction
- reduction of P. aeruginosa in platelets (P. aeruginosa [4]): 4 log10 CFU/ml
- reduction of S. epidermidis in platelets (S. epidermidis [5]): No significant reduction
- reduction of E. coli in platelets (E. coli [6]; EC5 12.5 μg/ml): 4.5 log10 CFU/ml
- E. coli colonies in platelets (E. coli [6]; EC5 50 and 25 μg/ml): no detectable E. coli colonies; also recorded: complete inhibition
- therapeutic index (MIC versus concentrations inducing hemolysis) [7]: favorable
- binding to E. coli (fluorometric counts) (E. coli [8]): able to bind
- binding to P. aeruginosa cells (fluorometric counts) (P. aeruginosa cells): binds
- reduction of S. aureus in plasma (S. aureus [9]): failed to cause a significant reduction
- reduction of K pneumoniae in plasma (K pneumoniae [10]; EC5 25 μg/ml): around 1.5 log10
- reduction of K pneumoniae in plasma (K pneumoniae [10]; EC5 50 μg/ml): around 2.5 log10
- reduction of B. cereus in plasma (B. cereus [11]): failed to cause a significant reduction
- reduction of P. aeruginosa in plasma (P. aeruginosa [12]; EC5 12.5 μg/ml): ~3 log10 CFU/ml
- reduction of P. aeruginosa in plasma (P. aeruginosa [12]; EC5 25 μg/ml): around 4 log10 CFU/ml
- bactericidal activity in homologous plasma, in words (P. aeruginosa [12]; EC5 50 μg/ml): inhibited
- reduction of P. aeruginosa in plasma (P. aeruginosa [12]; EC5 50 μg/ml): around 5 log10 CFU/ml
- reduction of S. epidermidis in plasma (S. epidermidis [13]): failed to cause a significant reduction
- reduction of E. coli in plasma (E. coli [14]; EC5 12.5 μg/ml): 3.5 log10
- reduction of E. coli in plasma (E. coli [14]; EC5 25 μg/ml): 4.5 log10
- bactericidal activity in homologous plasma, in words (E. coli [14]; EC5 50 μg/ml): inhibited
- reduction of E. coli in plasma (E. coli [14]; EC5 50 μg/ml): around 5 log10 CFU/ml
- regrowth (P. aeruginosa [15]): no regrowth until 24 hrs
- time to complete inhibition (P. aeruginosa [15]): 5 min
- reduction of E. coli (E. coli [16]; 4 μg/ml, around 45 min of exposure): 2-3 log10 CFU/ml
- regrowth (E. coli [16]; E. coli ATCC 700928, 25922): no regrowth until 24 hrs
- time to complete inhibition (E. coli [16]; E. coli ATCC 700928, 25922): 5 min
- killing of E. coli (E. coli [16]; MBC concentration of 8 μg/ml): complete killing
